Measured values published in PubChem BioAssay AID256 (DTP/NCI, 2004).
Several values for one entry are separate records, joined by “and”; a condition that tells them apart may be missing. Equal values may be shown once. Toxic doses and inconclusive results are not listed. How the source made its calls: active means survival T/C of 150% or more; inactive means T/C below 125% in these data.

Test system: CD2F1 mice, L1210 leukemia ip, survival T/C
Assay: NCI In Vivo Anticancer Drug Screen. Data for tumor model L1210 Leukemia (intraperitoneal) in CD2F1 (CDF1) mice
Settings: higher = longer survival
Protocol: The antitumor activity of compounds was measured in mice bearing transplantable tumors. Survival or tumor size were measured and the results are expressed as the measurement made in the treated group (T) divided by the measurement made in the vehicle treated control group (C). The tumor model used in this assay is L1210 Leukemia (intraperitoneal) in CD2F1 (CDF1) mice

[1] = endpoint: mean survival time, dose: 100.0 mg/kg/injection, schedule: Q01DX009 (ip), vehicle: saline with Tween-80
[2] = endpoint: mean survival time, dose: 100.0 mg/kg/injection, schedule: Q04DX003 (ip), vehicle: saline with Tween-80
[3] = endpoint: mean survival time, dose: 200.0 mg/kg/injection, schedule: Q01DX009 (ip), vehicle: saline with Tween-80
[4] = endpoint: mean survival time, dose: 200.0 mg/kg/injection, schedule: Q04DX003 (ip), vehicle: saline with Tween-80
[5] = endpoint: mean survival time, dose: 400.0 mg/kg/injection, schedule: Q01DX009 (ip), vehicle: saline with Tween-80
[6] = endpoint: mean survival time, dose: 400.0 mg/kg/injection, schedule: Q04DX003 (ip), vehicle: saline with Tween-80
[7] = endpoint: mean survival time, dose: 50.0 mg/kg/injection, schedule: Q04DX002 (ip), vehicle: saline with Tween-80
[8] = endpoint: mean survival time, dose: 100.0 mg/kg/injection, schedule: Q04DX002 (ip), vehicle: saline with Tween-80
[9] = endpoint: mean survival time, dose: 200.0 mg/kg/injection, schedule: Q04DX002 (ip), vehicle: saline with Tween-80
[10] = endpoint: mean survival time, dose: 100.0 mg/kg/injection, schedule: Q01DX001 (ip), vehicle: Klucel (hydroxypropylcellulose) (HPC)
[11] = endpoint: mean survival time, dose: 200.0 mg/kg/injection, schedule: Q01DX001 (ip), vehicle: Klucel (hydroxypropylcellulose) (HPC)
[12] = endpoint: mean survival time, dose: 200.0 mg/kg/injection, schedule: Q01DX001 (ip), vehicle: saline with Tween-80
[13] = endpoint: mean survival time, dose: 400.0 mg/kg/injection, schedule: Q01DX001 (ip), vehicle: saline with Tween-80

Measured: T/C

CC1(C)C2=CCCC3(OCCO3)C2(C)CCC1O (stereo not drawn)
inactive: [1] 104 % of control | [2] 98 % of control | [3] 106 % of control | [4] 98 % of control | [5] 98 % of control | [6] 101 % of control

O=C(CCC1CC=CCC1)c1ccccc1 (stereo not drawn)
inactive: endpoint: mean survival time, dose: 25.0 mg/kg/injection, schedule: Q04DX002 (ip), vehicle: saline with Tween-80 111 % of control | [7] 96 % of control | [8] 90 % of control | [9] 93 % of control

Nc1nc(=S)c2ncn(C3CC(O)C(CO)C3)c2[nH]1 (stereo not drawn)
inactive: endpoint: mean survival time, dose: 50.0 mg/kg/injection, schedule: Q01DX009 (ip), vehicle: Klucel (hydroxypropylcellulose) (HPC) 94 % of control | endpoint: mean survival time, dose: 100.0 mg/kg/injection, schedule: Q01DX009 (ip), vehicle: Klucel (hydroxypropylcellulose) (HPC) 91 % of control | endpoint: mean survival time, dose: 200.0 mg/kg/injection, schedule: Q01DX009 (ip), vehicle: Klucel (hydroxypropylcellulose) (HPC) 108 % of control

S=C(NCc1ccccc1)Nc1ncn[nH]1
inactive: endpoint: mean survival time, dose: 12.5 mg/kg/injection, schedule: Q01DX001 (ip), vehicle: carboxymethylcellulose (CMC) 97 % of control | endpoint: mean survival time, dose: 25.0 mg/kg/injection, schedule: Q01DX001 (ip), vehicle: carboxymethylcellulose (CMC) 89 % of control | endpoint: mean survival time, dose: 50.0 mg/kg/injection, schedule: Q01DX001 (ip), vehicle: carboxymethylcellulose (CMC) 86 % of control | endpoint: mean survival time, dose: 100.0 mg/kg/injection, schedule: Q01DX001 (ip), vehicle: carboxymethylcellulose (CMC) 86 % of control

Cc1ccccc1CN1C2=NCCN2C(=O)C2=C1CCN(S(=O)(=O)c1ccc(Cl)c(S(N)(=O)=O)c1)C2
inactive: endpoint: median survival time, dose: 25.0 mg/kg/injection, schedule: Q01DX009 (ip), vehicle: saline 95 % of control | endpoint: median survival time, dose: 50.0 mg/kg/injection, schedule: Q01DX009 (ip), vehicle: saline 100 % of control | endpoint: median survival time, dose: 100.0 mg/kg/injection, schedule: Q01DX009 (ip), vehicle: saline 93 % of control | endpoint: median survival time, dose: 400.0 mg/kg/injection, schedule: Q01DX009 (ip), vehicle: saline 88 % of control

CC(C)(Br)C(=O)c1ccco1
inactive: endpoint: mean survival time, dose: 100.0 mg/kg/injection, schedule: Q04DX003 (ip), vehicle: saline sonified 101 % of control | endpoint: mean survival time, dose: 200.0 mg/kg/injection, schedule: Q04DX003 (ip), vehicle: saline sonified 102 % of control | endpoint: mean survival time, dose: 400.0 mg/kg/injection, schedule: Q04DX003 (ip), vehicle: saline sonified 95 % of control

C/C=C/COC1CCS(=O)(=O)C1 (stereo not drawn)
inactive: endpoint: mean survival time, dose: 50.0 mg/kg/injection, schedule: Q01DX009 (ip), vehicle: saline with Tween-80 104 % of control | [1] 97 % of control | [3] 97 % of control

CCOC(=O)C(SC)(SC)C(=O)OCC
inactive: [10] 106 % of control | [11] 109 % of control | endpoint: mean survival time, dose: 400.0 mg/kg/injection, schedule: Q01DX001 (ip), vehicle: Klucel (hydroxypropylcellulose) (HPC) 103 % of control

CCCCOc1cc([N+](=O)[O-])ccc1CO
inactive: [2] 94 % of control | [4] 92 % of control | [6] 87 % of control

C1CC[N-]CC1.C1CC[N-]CC1.C1CC[N-]CC1.C1CC[N-]CC1.[Co].[N-]=C=S.[N-]=C=S
inactive: [8] 123 % of control

CCCCCCCC(=O)/C=C/Sc1n[nH]c(=O)[nH]c1=O
inactive: endpoint: mean survival time, dose: 12.5 mg/kg/injection, schedule: Q01DX005 (ip), vehicle: distilled water + Tween-80 94 % of control | endpoint: mean survival time, dose: 25.0 mg/kg/injection, schedule: Q01DX005 (ip), vehicle: distilled water + Tween-80 102 % of control | endpoint: mean survival time, dose: 50.0 mg/kg/injection, schedule: Q01DX005 (ip), vehicle: distilled water + Tween-80 107 % of control

O=C1c2ccccc2C(=O)c2c(O)c(S(=O)(=O)O)cc(O)c21
inactive: endpoint: mean survival time, dose: 100.0 mg/kg/injection, schedule: Q04DX003 (ip), vehicle: saline 93 % of control | endpoint: mean survival time, dose: 200.0 mg/kg/injection, schedule: Q04DX003 (ip), vehicle: saline 96 % of control

O=C1c2ccccc2C(=O)c2c(O)c3c(c(O)c21)CCC(O)C3 (stereo not drawn)
inactive: endpoint: mean survival time, dose: 12.5 mg/kg/injection, schedule: Q01DX009 (ip), vehicle: other 102 % of control | endpoint: mean survival time, dose: 25.0 mg/kg/injection, schedule: Q01DX009 (ip), vehicle: other 107 % of control | endpoint: mean survival time, dose: 50.0 mg/kg/injection, schedule: Q01DX009 (ip), vehicle: other 96 % of control | endpoint: mean survival time, dose: 100.0 mg/kg/injection, schedule: Q01DX009 (ip), vehicle: other 91 % of control | endpoint: mean survival time, dose: 200.0 mg/kg/injection, schedule: Q01DX009 (ip), vehicle: other 93 % of control

COc1ccc(OC)c(/C=C(/C#N)C(N)=O)c1
inactive: [7] 104 % of control | [8] 93 % of control | [12] 91 % of control | [9] 93 % of control | [13] 90 % of control

O=C1OC(=O)C2=C1C1C3C=CCC3C2N2C=CC=CC12 (stereo not drawn)
inactive: [10] 105 % of control | [11] 93 % of control

O=C(CCl)Nc1ccc(-c2c(NC(=O)CCl)ncc3ccccc23)cc1
inactive: endpoint: mean survival time, dose: 18.75 mg/kg/injection, schedule: Q04DX003 (ip), vehicle: other 100 % of control | endpoint: mean survival time, dose: 37.5 mg/kg/injection, schedule: Q04DX003 (ip), vehicle: other 108 % of control | endpoint: mean survival time, dose: 75.0 mg/kg/injection, schedule: Q04DX003 (ip), vehicle: other 108 % of control | endpoint: mean survival time, dose: 150.0 mg/kg/injection, schedule: Q04DX003 (ip), vehicle: other 108 % of control

CC(=O)Nc1nc(CCl)cs1
inactive: [10] 92 % of control | [11] 87 % of control

c1ccc2[nH]c(C3CCCCN3)cc2c1 (stereo not drawn)
inactive: endpoint: mean survival time, dose: 100.0 mg/kg/injection, schedule: Q01DX001 (ip), vehicle: saline 101 % of control | endpoint: mean survival time, dose: 200.0 mg/kg/injection, schedule: Q01DX001 (ip), vehicle: saline 96 % of control

Cc1ccccc1C(O)(c1ccccc1C)c1ccccc1C
inactive: endpoint: mean survival time, dose: 100.0 mg/kg/injection, schedule: Q04DX003 (ip), vehicle: acetone 96 % of control | endpoint: mean survival time, dose: 200.0 mg/kg/injection, schedule: Q04DX003 (ip), vehicle: acetone 98 % of control | endpoint: mean survival time, dose: 400.0 mg/kg/injection, schedule: Q04DX003 (ip), vehicle: acetone 98 % of control

CC1OC(O[C@H]2/C=C/C=C/C=C/C=C/C=C/C=C/C=C/[C@H](C)[C@@H](O)[C@@H](C)[C@H](C)OC(=O)C[C@H](O)C[C@H](O)CC[C@@H](O)[C@H](O)C[C@H](O)C[C@]3(O)C[C@H](O)[C@@H](C(=O)O)[C@H](C2)O3)C(O)C(N)C1O (stereo partly drawn)
inactive: endpoint: median survival time, dose: 2.0 mg/kg/injection, schedule: Q01DX009 (ip), vehicle: suspension in saline 97 % of control | endpoint: median survival time, dose: 4.0 mg/kg/injection, schedule: Q01DX009 (ip), vehicle: suspension in saline 102 % of control | endpoint: median survival time, dose: 8.0 mg/kg/injection, schedule: Q01DX009 (ip), vehicle: suspension in saline 102 % of control | endpoint: median survival time, dose: 16.0 mg/kg/injection, schedule: Q01DX009 (ip), vehicle: suspension in saline 97 % of control and 98 % of control | endpoint: median survival time, dose: 18.75 mg/kg/injection, schedule: Q01DX009 (ip), vehicle: suspension in saline 108 % of control | endpoint: median survival time, dose: 32.0 mg/kg/injection, schedule: Q01DX009 (ip), vehicle: suspension in saline 102 % of control and 105 % of control | endpoint: median survival time, dose: 37.5 mg/kg/injection, schedule: Q01DX009 (ip), vehicle: suspension in saline 104 % of control | endpoint: median survival time, dose: 64.0 mg/kg/injection, schedule: Q01DX009 (ip), vehicle: suspension in saline 101 % of control | endpoint: median survival time, dose: 75.0 mg/kg/injection, schedule: Q01DX009 (ip), vehicle: suspension in saline 104 % of control | endpoint: median survival time, dose: 128.0 mg/kg/injection, schedule: Q01DX009 (ip), vehicle: suspension in saline 105 % of control | endpoint: median survival time, dose: 150.0 mg/kg/injection, schedule: Q01DX009 (ip), vehicle: suspension in saline 112 % of control | endpoint: median survival time, dose: 300.0 mg/kg/injection, schedule: Q01DX009 (ip), vehicle: suspension in saline 106 % of control

CSc1ccc(NC(=O)N(CCCl)N=O)cc1
inactive: endpoint: mean survival time, dose: 2.3 mg/kg/injection, schedule: Q01DX001 (ip), vehicle: other 121 % of control | endpoint: mean survival time, dose: 3.5 mg/kg/injection, schedule: Q01DX001 (ip), vehicle: other 122 % of control

O=C(OC(C(=O)O)C(OC(=O)c1ccccc1)C(=O)O)c1ccccc1 (stereo not drawn) (tested in a mixture with another compound)
inactive: [7] 92 % of control | endpoint: mean survival time, dose: 100.0 mg/kg/injection, schedule: Q01DX001 (ip), vehicle: saline with Tween-80 105 % of control | [8] 106 % of control | [2] 101 % of control | [12] 100 % of control | [9] 95 % of control | [4] 106 % of control | [13] 97 % of control | [6] 98 % of control

O=C(NCCC1CC=CCC1)c1ccccc1 (stereo not drawn)
inactive: [1] 97 % of control | [3] 95 % of control | [5] 103 % of control
